Bounds are passed on as bounds.

In one assay the target is T1, ADAM-10 (UniProt O14672).
T1 sequence (O14672 1-748): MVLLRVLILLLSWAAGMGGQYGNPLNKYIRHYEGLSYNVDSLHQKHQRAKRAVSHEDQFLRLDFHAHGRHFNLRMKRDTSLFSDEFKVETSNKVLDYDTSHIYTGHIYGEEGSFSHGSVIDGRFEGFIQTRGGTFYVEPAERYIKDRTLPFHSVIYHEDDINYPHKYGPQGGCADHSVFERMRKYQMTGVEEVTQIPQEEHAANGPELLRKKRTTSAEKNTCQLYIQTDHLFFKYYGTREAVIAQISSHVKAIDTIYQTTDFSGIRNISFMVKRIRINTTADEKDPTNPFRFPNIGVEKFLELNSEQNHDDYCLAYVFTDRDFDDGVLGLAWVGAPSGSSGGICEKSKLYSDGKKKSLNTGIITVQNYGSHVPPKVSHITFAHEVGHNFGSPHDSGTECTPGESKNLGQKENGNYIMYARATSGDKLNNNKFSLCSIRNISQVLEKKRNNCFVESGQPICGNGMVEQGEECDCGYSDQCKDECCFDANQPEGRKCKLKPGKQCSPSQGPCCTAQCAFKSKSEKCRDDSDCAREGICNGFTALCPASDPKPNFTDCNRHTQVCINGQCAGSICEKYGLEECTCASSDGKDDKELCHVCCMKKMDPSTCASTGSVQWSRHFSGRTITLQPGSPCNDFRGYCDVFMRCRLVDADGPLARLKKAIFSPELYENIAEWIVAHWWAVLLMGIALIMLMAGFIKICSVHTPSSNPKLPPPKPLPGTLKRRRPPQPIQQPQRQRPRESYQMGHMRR
Nature of the assay: ADAM-10 enzyme assay, cleavage of a fluorogenic 10-residue peptide.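 Further: mouse or human ADAM-10 at 5 nM active enzyme, pH 8.0 HEPES buffer with CaCl2 and NP-40, compounds titrated 100 µM down to 0.5 nM, fluorescence read after 16 h at room temperature.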 It is filed as biochemical, mouse or human (mADAM-10 or hADAM-10). The note with it: in vitro.

Assay [1] addresses T2, MMP-1 (Fibroblast collagenase) (Homo sapiens, UniProt P03956).
T2 sequence (P03956 100-469): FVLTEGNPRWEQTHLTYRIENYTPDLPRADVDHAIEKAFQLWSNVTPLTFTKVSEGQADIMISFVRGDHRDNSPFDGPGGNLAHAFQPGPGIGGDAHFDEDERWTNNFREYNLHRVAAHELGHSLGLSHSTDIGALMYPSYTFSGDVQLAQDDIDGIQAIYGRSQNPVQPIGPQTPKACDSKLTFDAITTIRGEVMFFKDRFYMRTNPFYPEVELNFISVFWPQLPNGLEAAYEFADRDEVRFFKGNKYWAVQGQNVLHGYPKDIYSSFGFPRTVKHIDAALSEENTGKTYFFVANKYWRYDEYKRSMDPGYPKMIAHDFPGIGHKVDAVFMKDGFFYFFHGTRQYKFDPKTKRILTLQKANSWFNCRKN
The experiment in a line: In vitro metalloprotease inhibition, MMP-1. It is filed as biochemical. The text has this: (§1) Blank cells indicate lack of data only.

For assay [2], the target named is T3, MMP-2 (72 kDa gelatinase, gelatinase A) (Homo sapiens, UniProt P08253).
T3 sequence (P08253 110-660): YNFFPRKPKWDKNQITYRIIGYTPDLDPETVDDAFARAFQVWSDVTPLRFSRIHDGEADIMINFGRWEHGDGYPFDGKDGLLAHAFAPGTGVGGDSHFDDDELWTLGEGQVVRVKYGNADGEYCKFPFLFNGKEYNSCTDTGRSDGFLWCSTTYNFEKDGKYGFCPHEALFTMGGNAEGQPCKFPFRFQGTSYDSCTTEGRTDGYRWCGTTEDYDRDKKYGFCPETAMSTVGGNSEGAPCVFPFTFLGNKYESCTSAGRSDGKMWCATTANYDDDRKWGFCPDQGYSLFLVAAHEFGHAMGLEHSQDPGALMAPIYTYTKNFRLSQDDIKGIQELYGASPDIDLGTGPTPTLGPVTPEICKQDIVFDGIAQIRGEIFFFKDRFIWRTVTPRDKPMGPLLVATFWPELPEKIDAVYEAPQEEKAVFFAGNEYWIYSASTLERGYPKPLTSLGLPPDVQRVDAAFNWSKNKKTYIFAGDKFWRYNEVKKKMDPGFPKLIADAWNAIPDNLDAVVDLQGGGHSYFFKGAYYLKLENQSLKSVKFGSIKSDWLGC
The experiment in a line: In vitro metalloprotease inhibition, MMP-2. It is filed as biochemical.

The next assay concerns the target MMP-3 (Stromelysin-1) (Homo sapiens, UniProt P08254). Nature of the assay: In vitro metalloprotease inhibition, MMP-3. The format is biochemical.
Source text: as §1

A further assay deals with MMP-13 (collagenase-3) (Homo sapiens, UniProt P45452). The experiment in a line: In vitro metalloprotease inhibition, MMP-13. It is filed as biochemical.

Sequence of MMP-3 (Stromelysin-1) (P08254 100-477, species assumed): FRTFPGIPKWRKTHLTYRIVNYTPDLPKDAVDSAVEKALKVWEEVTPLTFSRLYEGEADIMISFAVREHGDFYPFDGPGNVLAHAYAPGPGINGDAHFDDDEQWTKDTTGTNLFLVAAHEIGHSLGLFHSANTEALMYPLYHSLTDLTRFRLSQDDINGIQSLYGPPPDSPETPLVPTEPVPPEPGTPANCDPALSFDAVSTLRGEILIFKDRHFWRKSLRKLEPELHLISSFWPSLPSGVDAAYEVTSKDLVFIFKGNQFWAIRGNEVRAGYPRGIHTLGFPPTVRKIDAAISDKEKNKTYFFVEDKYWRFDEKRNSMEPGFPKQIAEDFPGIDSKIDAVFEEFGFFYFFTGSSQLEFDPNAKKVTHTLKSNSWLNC
Description for ADAM-10: mADAM-10 or hADAM-10 activity was measured as the ability to cleave a 10-residue peptide (DABCYL-Leu-Leu-Ala-Gln-Lys-*-LeuArg-Ser-Ser-Arg-EDANS). […] Enzyme was diluted to a final active concentration of 5 nM in Buffer A (50 mM HEPES 8.0, 100 mM NaCl, 1 mM CaCl2 and 0.01% NP-40). Serial dilutions for compounds were performed ranging from 100 μM to 0.5 nM using a Beckman Biomek 2000 in polypropylene plates (Greiner). […] This reaction was incubated for 16 hr at RT and fluorescence was read using identical conditions.

For `O=C(NO)[C@H]1CN(C(=O)CN2CCOCC2)CCN1S(=O)(=O)c1cc(F)c(Oc2ccc(Cl)cc2)c(F)c1` [Entry 25], the IC50 (in general, the midpoint of a concentration-inhibition curve) against ADAM-10 is below 50 nM; in assay [1], above 20000 nM; in assay [2], below 50 nM; at MMP-3 (Stromelysin-1) it was 50 to 1000 nM; on MMP-13 (collagenase-3), below 50 nM.

Regarding `O=C(NO)[C@H]1CN(C(=O)CN2CCCCC2)CCN1S(=O)(=O)c1cc(F)c(Oc2ccc(Cl)cc2)c(F)c1` [Entry 26], the IC50 against ADAM-10 is below 50 nM; in assay [1], above 20000 nM; in assay [2], below 50 nM; on MMP-3 (Stromelysin-1), 1000 to 20000 nM; against MMP-13 (collagenase-3), below 50 nM.

As for `O=C(NO)[C@H]1CN(C(=O)OCCN2CCCCC2)CCN1S(=O)(=O)c1cc(F)c(Oc2ccc(Cl)cc2)c(F)c1` [Entry 27], the IC50 at ADAM-10 was below 50 nM; in assay [1] it was 1000 to 20000 nM; in assay [2], below 50 nM; on MMP-3 (Stromelysin-1), 50 to 1000 nM; on MMP-13 (collagenase-3), below 50 nM.

Turning to `CS(=O)(=O)N1CCN(S(=O)(=O)c2cc(F)c(Oc3ccc(Cl)cc3)c(F)c2)[C@@H](C(=O)NO)C1` [Entry 28], the IC50 at ADAM-10 is below 50 nM; in assay [1], 50 to 1000 nM; in assay [2] it was below 50 nM; at MMP-3 (Stromelysin-1), 50 to 1000 nM; on MMP-13 (collagenase-3), below 50 nM.

As to `COCCN1CCN(S(=O)(=O)c2cc(F)c(Oc3ccc(Cl)cc3)c(F)c2)[C@@H](C(=O)NO)C1` [Entry 29], the IC50 against ADAM-10 is below 50 nM; in assay [1], 1000 to 20000 nM; in assay [2], below 50 nM; against MMP-3 (Stromelysin-1) it was 50 to 1000 nM; against MMP-13 (collagenase-3), below 50 nM.

As for `O=C(NO)[C@H]1CN(C(=O)OCc2ccccc2)CCN1S(=O)(=O)c1cc(F)c(Oc2ccc(Cl)cc2)c(F)c1` [Entry 32], the IC50 is below 50 nM at ADAM-10; 1000 to 20000 nM in assay [1]; below 50 nM in assay [2]; 50 to 1000 nM against MMP-3 (Stromelysin-1); below 50 nM on MMP-13 (collagenase-3).

Consider `O=C(CCl)NC(=O)N1CCN(S(=O)(=O)c2cc(F)c(Oc3ccc(Cl)cc3)c(F)c2)[C@@H](C(=O)NO)C1` [Entry 33], for which the IC50 was below 50 nM against ADAM-10; 1000 to 20000 nM in assay [1]; below 50 nM in assay [2]; 50 to 1000 nM on MMP-3 (Stromelysin-1); below 50 nM against MMP-13 (collagenase-3).

Take `O=C(NO)[C@H]1CN(C(=O)C(=O)N2CCCCC2)CCN1S(=O)(=O)c1cc(F)c(Oc2ccc(Cl)cc2)c(F)c1` [Entry 35]: the IC50 is below 50 nM against ADAM-10; 1000 to 20000 nM in assay [1]; below 50 nM in assay [2]; 50 to 1000 nM against MMP-3 (Stromelysin-1); below 50 nM against MMP-13 (collagenase-3).

Turning to `CN(C)S(=O)(=O)N1CCN(S(=O)(=O)c2cc(F)c(Oc3ccc(Cl)cc3)c(F)c2)[C@@H](C(=O)NO)C1` [Entry 36], the IC50 against ADAM-10 was below 50 nM; in assay [1], 1000 to 20000 nM; in assay [2] it was below 50 nM; at MMP-3 (Stromelysin-1), 50 to 1000 nM; at MMP-13 (collagenase-3), below 50 nM.

For `CN1CCN(C(=O)NS(=O)(=O)N2CCN(S(=O)(=O)c3cc(F)c(Oc4ccc(Cl)cc4)c(F)c3)[C@@H](C(=O)NO)C2)CC1` [Entry 39], the IC50 on ADAM-10 is below 50 nM; in assay [1], 50 to 1000 nM; in assay [2], below 50 nM; against MMP-3 (Stromelysin-1) it was below 50 nM; against MMP-13 (collagenase-3) it was below 50 nM.

For the molecule `COCCOC(=O)N1CCN(S(=O)(=O)c2cc(F)c(Oc3ccccc3)c(F)c2)[C@@H](C(=O)NO)C1` [Entry 40], the IC50 against ADAM-10 was below 50 nM; in assay [1] it was 1000 to 20000 nM; in assay [2], below 50 nM; against MMP-3 (Stromelysin-1), 50 to 1000 nM; against MMP-13 (collagenase-3), below 50 nM.

For `O=C(NO)[C@H]1CN(S(=O)(=O)c2cc(F)c(O)c(F)c2)CCN1S(=O)(=O)c1cc(F)c(Oc2ccc(Cl)cc2)c(F)c1` [Entry 41], the IC50 is below 50 nM against ADAM-10; 1000 to 20000 nM in assay [1]; below 50 nM in assay [2]; below 50 nM against MMP-3 (Stromelysin-1); below 50 nM against MMP-13 (collagenase-3).

Regarding `O=C(NO)[C@H]1CN(C(=O)c2ccncc2)CCN1S(=O)(=O)c1cc(F)c(Oc2ccc(Cl)cc2)c(F)c1` [Entry 42], the IC50 was below 50 nM on ADAM-10; 1000 to 20000 nM in assay [1]; below 50 nM in assay [2]; 1000 to 20000 nM on MMP-3 (Stromelysin-1); below 50 nM against MMP-13 (collagenase-3).

On to `CCCCCCC(=O)N1CCN(S(=O)(=O)c2cc(F)c(Oc3ccc(Cl)cc3)c(F)c2)[C@@H](C(=O)NO)C1` [Entry 43], for which the IC50 against ADAM-10 is below 50 nM; in assay [1] it was above 20000 nM; in assay [2], below 50 nM; against MMP-3 (Stromelysin-1), 50 to 1000 nM; against MMP-13 (collagenase-3) it was below 50 nM.

Take `CCCC(CCC)C(=O)N1CCN(S(=O)(=O)c2cc(F)c(Oc3ccc(Cl)cc3)c(F)c2)[C@@H](C(=O)NO)C1` [Entry 44]: the IC50 on ADAM-10 is below 50 nM; in assay [1], above 20000 nM; in assay [2], below 50 nM; at MMP-3 (Stromelysin-1) it was 1000 to 20000 nM; at MMP-13 (collagenase-3), 50 to 1000 nM.

Take `O=C(CN1CCOCC1)NC(=O)N1CCN(S(=O)(=O)c2cc(F)c(Oc3ccc(Cl)cc3)c(F)c2)[C@@H](C(=O)NO)C1` [Entry 46]: the IC50 is below 50 nM against ADAM-10; 1000 to 20000 nM in assay [1]; below 50 nM in assay [2]; 50 to 1000 nM at MMP-3 (Stromelysin-1); below 50 nM on MMP-13 (collagenase-3).

In the case of `O=C(NO)[C@H]1CN(C(=O)Cc2cccnc2)CCN1S(=O)(=O)c1cc(F)c(Oc2ccc(Cl)cc2)c(F)c1` [Entry 47], the IC50 was below 50 nM at ADAM-10; above 20000 nM in assay [1]; below 50 nM in assay [2]; 50 to 1000 nM at MMP-3 (Stromelysin-1); below 50 nM at MMP-13 (collagenase-3).

For `O=C(NO)[C@H]1CN(S(=O)(=O)c2cccc3cnccc23)CCN1S(=O)(=O)c1cc(F)c(Oc2ccc(Cl)cc2)c(F)c1` [Entry 48], the IC50 on ADAM-10 was below 50 nM; in assay [1], above 20000 nM; in assay [2] it was below 50 nM; against MMP-3 (Stromelysin-1), 50 to 1000 nM; against MMP-13 (collagenase-3), below 50 nM.

On to `CN(C)c1ccc2c(S(=O)(=O)N3CCN(S(=O)(=O)c4cc(F)c(Oc5ccc(Cl)cc5)c(F)c4)[C@@H](C(=O)NO)C3)cccc2c1` [Entry 49], for which the IC50 is 1000 to 20000 nM against ADAM-10; above 20000 nM in assay [1]; below 50 nM in assay [2]; 50 to 1000 nM at MMP-3 (Stromelysin-1); below 50 nM on MMP-13 (collagenase-3).

For the molecule `CN(C)c1ccc2ccc(S(=O)(=O)N3CCN(S(=O)(=O)c4cc(F)c(Oc5ccc(Cl)cc5)c(F)c4)[C@@H](C(=O)NO)C3)cc2c1` [Entry 50], the half-maximal inhibitory concentration (IC50) at ADAM-10 was 1000 to 20000 nM; in assay [1], above 20000 nM; in assay [2], above 20000 nM; against MMP-3 (Stromelysin-1) it was 50 to 1000 nM; against MMP-13 (collagenase-3), below 50 nM.

Take `O=C(NO)[C@H]1CN(C(=O)c2ccc(-c3ccccc3)cc2)CCN1S(=O)(=O)c1cc(F)c(Oc2ccc(Cl)cc2)c(F)c1` [Entry 51]: the IC50 fell in the range of 50 to 1000 nM on ADAM-10; 1000 to 20000 nM in assay [1]; 50 to 1000 nM in assay [2]; 1000 to 20000 nM at MMP-3 (Stromelysin-1); 50 to 1000 nM on MMP-13 (collagenase-3).

Regarding `O=C(NO)[C@H]1CN(C(=O)Cc2ccncc2)CCN1S(=O)(=O)c1cc(F)c(Oc2ccc(Cl)cc2)c(F)c1` [Entry 52], the half-inhibitory concentration (IC50) on ADAM-10 is below 50 nM; in assay [1], 1000 to 20000 nM; in assay [2], below 50 nM; at MMP-3 (Stromelysin-1) it was 1000 to 20000 nM; against MMP-13 (collagenase-3) it was below 50 nM.

The values above are taken from patent US7629341B2, “Human ADAM-10 inhibitors” (Symphony Evolution, Inc., priority 2003, dated 2009).
